According to publication PMC3767324, “Synthesis, Characterization, and BSA Binding Studies of Some New Benzamides Related to Schiff Base” (ISRN Organic Chemistry, 2013):
≈ marks a conversion by molar mass, not a printed value.

Experiments:
A. niger [1] = assay: agar disc diffusion, zone of inhibition; format: cell-based; settings: Aspergillus niger, 48 h
Description: [The procedure below names another organism; the source lists this organism under the same test.] (§1) The in vitro antimicrobial screening effects of the compounds (3 and 5a–j) were individually tested against a panel of bacteria and fungi including Staphylococcus aureus (NCIM 5021), Bacillus subtilis (NCIM 2999), Pseudomonas aeruginosa (NCIM 5029), Escherichia coli (NCIM 2574), Candida. albicans (NCIM 3471), and Aspergillus flavus (NCIM 524). Microbial strains were cultured overnight at 37°C in nutrient and potato dextrose agar medium. All the pure microbial strains were obtained from National Chemical Laboratory (NCL), Pune, India.
(§2) The antibacterial activity of compounds was determined by agar disc diffusion method. Briefly, a suspension of tested bacterial strains was spread on the nutrient agar medium and potato dextrose agar for fungi. The discs (6 mm in diameter) impregnated with test chemicals each dissolved in concentration (100 μg/mL in DMSO) were placed on the inoculated agar and these plates were kept at 4°C for 2 h. The plate was incubated at 37°C for 24 h in case of bacteria and 48 h at 28°C in case of fungi. streptomycin (10 μg/disc) and fluconazole (10 μg/disc) were used as the standards for antibacterial and antifungal activity, respectively. All the samples were performed in triplicate and the zone of inhibition was measured in millimeters.

[2] = system: Aspergillus flavus (NCIM 524); assay: agar disc diffusion, zone of inhibition; format: cell-based; settings: Aspergillus flavus, NCIM524, 48 h
Description: as §1, §2

[3] = system: Bacillus subtilis (NCIM 2999); assay: agar disc diffusion, zone of inhibition; format: cell-based; settings: Bacillus subtilis, NCIM2999, 24 h
Description: as §1, §2

[4] = system: Escherichia coli (NCIM 2574); assay: agar disc diffusion, zone of inhibition; format: cell-based; settings: Escherichia coli, NCIM2574, 24 h
Description: as §1, §2

[5] = system: Pseudomonas aeruginosa (NCIM 5029); assay: agar disc diffusion, zone of inhibition; format: cell-based; settings: Pseudomonas aeruginosa, NCIM5029, 24 h
Description: as §1, §2

[6] = system: Staphylococcus aureus (NCIM 5021); assay: agar disc diffusion, zone of inhibition; format: cell-based; settings: Staphylococcus aureus, NCIM5021, 24 h
Description: as §1, §2

A. niger [7] = assay: minimum inhibitory concentration by dilution method; format: cell-based
Description: [The procedure below names another organism; the source lists this organism under the same test.] as §1
(§3) The minimum inhibitory concentration of the synthesized compounds was determined by dilution method. The compounds were dissolved and then diluted using DMSO; two-fold serial concentrations of the compounds were employed to determine the MIC. In this method, the test concentrations of chemically synthesized compounds were made from 5 to 125 μg/mL.

[8] = system: Aspergillus flavus (NCIM 524); assay: as above; format: cell-based; settings: Aspergillus flavus, NCIM524
Description: as §1, §3

[9] = system: Escherichia coli (NCIM 2574); assay: as above; format: cell-based; settings: Escherichia coli, NCIM2574
Description: as §1, §3

[10] = system: Pseudomonas aeruginosa (NCIM 5029); assay: as above; format: cell-based; settings: Pseudomonas aeruginosa, NCIM5029
Description: as §1, §3

[11] = system: Staphylococcus aureus (NCIM 5021); assay: as above; format: cell-based
Description: as §1, §3

[12] = superoxide radical scavenging assay (NBT, xanthine-xanthine oxidase system); format: biochemical; settings: NBT reduction, pH 7.8, 560 nm, three replicates
Description: Superoxide radical scavenging activity was measured as described by Kovala-Demertzi et al., (2004). The assay is based on the reduction of nitroblue tetrazolium (NBT) by superoxide ions generated by the xanthine-xanthine oxidase system (X–XO). The reaction system contained 0.2 mM xanthine and 0.6 mM NBT in 0.1 M phosphate buffer, pH 7.8. The tested compounds were dissolved in methanol. The reaction was started by addition of XO (0.07 U mL^−1), an activity which allowed to yield the absorbance change between 0.03 and 0.04 per minute, at 560 nm. The extent of NBT reduction was followed spectrophotometrically, by measuring the increase of the absorbance at 560 nm. All the experiments were replicated three times. The IC50 of each compound was defined as the concentration which inhibited 50% of the NBT reduction by O2 ^•− produced in the X–XO system.
Superoxide anion radical is normally initially formed, and its effects can be magnified because it produces other kinds of free radicals and oxidizing agents. The enzymatic superoxide anion radical was generated by the xanthine/xanthine oxidase reaction system. The production of superoxide was estimated by the nitroblue tetrazolium method. […] Differently, in the m-position, methoxy and hydroxyl groups act as an electron-withdrawing properties, ([…]), which are possible for providing a destabilizing effect.

[13] = target: T1, bovine serum albumin (BSA) (Bos taurus, UniProt P02769); assay: fluorescence quenching of BSA, binding parameters; settings: for n (number of binding sites) / K sv (Stern-Volmer quenching constant) / K q (quenching rate constant) / shift of BSA fluorescence emission maximum wavelength: 298 K; for K sv (Stern-Volmer quenching constant): BSA 1.00 × 10^−5 mol L^−1, Tris-HCl pH 7.4; for K q (quenching rate constant): τ0 = 10^−8 s; for shift of BSA fluorescence emission maximum wavelength: excitation 280 nm, emission around 340 nm
T1 construct: Bovine serum albumin (BSA), one of the major components in plasma protein; purchased Sigma Aldrich Bangalore
Description: All the chemicals and solvents were of AR grade. Solvents were used as supplied by commercial sources without any further purification. BSA (essentially fatty-acid-free) was purchased from Sigma Aldrich Bangalore and stored in refrigerator at 4.0°C. BSA solution was prepared in the Tris-HCl buffer solution (0.05 mol L^−1 Tris, 0.15 mol L^−1 NaCl, pH 7.4) and it was kept in the dark at 298 K. The compounds were prepared as stock solutions using DMF. All other reagents were of analytical reagent grade, and double-distilled water was used during the experiment.
For each of the […] active compounds (5a, 5c, 5g, 5h, 5i, and 5j), the binding parameters with BSA molecules were measured by fluorescence spectroscopy. A solution (2.5 mL) containing 1.00 × 10^−5 mol L^−1 BSA was titrated by successive additions of 1.00 × 10^−3 mol L^−1 NABP stock solution and the concentration of NABP varied from 0 to 3.0 × 10^−5 mol L^−1 (a–g). Titrations were done manually by using microinjector. Fluorescence intensity was measured (excitation at 280 nm and emission at 340 nm). All experiments were performed at 298 K.
In order to investigate the quenching mechanism, the fluorescence quenching data K 0 and n were analyzed by the Stern-Volmer equation (2): (2) F0/F=1+Ksv[Q]=1+Kqτ0[Q], where F 0 and F denote the steady-state fluorescence intensities in the absence and in the presence of quencher, respectively, K 0 is binding constant of BSA, [Q] is the equilibrium concentration of the quencher, and n is the number of binding sites. The average lifetime, τ 0 of the molecule without quencher is 10^−8 s.
When the quenching mechanism is static, the binding parameters between BSA and compounds can be determined using (3): (3) log(F0−F)/F=log Ka+n log[Q].
The plot of log[(F 0 − F)/F] versus log[NABP], binding constant K a, and binding sites n were calculated from the intercept and slope. […] The value of n approximately equaled 1.

[14] = Staphylococcus aureus, NCIM5021

T1 sequence (P02769 25-607): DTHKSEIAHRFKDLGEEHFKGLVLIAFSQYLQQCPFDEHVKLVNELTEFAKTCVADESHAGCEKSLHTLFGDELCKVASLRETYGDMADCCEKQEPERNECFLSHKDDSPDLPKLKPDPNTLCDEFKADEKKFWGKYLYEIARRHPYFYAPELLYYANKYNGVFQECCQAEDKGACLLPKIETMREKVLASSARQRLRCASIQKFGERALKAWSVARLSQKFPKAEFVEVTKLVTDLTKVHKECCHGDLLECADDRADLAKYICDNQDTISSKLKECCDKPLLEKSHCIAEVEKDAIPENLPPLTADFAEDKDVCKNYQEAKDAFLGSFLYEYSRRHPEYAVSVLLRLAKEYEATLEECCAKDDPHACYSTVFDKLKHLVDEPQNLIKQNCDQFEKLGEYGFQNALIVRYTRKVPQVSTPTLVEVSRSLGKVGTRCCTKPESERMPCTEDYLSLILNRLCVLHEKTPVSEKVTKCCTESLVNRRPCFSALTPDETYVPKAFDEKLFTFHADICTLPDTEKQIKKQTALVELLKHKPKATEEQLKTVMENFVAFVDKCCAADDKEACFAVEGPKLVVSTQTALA

SMILES	zone of inhibition at 100 µg/mL (A. niger [1]) [mm]	zone of inhibition at 100 µg/mL [2] [mm]	zone of inhibition at 100 µg/mL [3] [mm]	zone of inhibition at 100 µg/mL [4] [mm]	zone of inhibition at 100 µg/mL [5] [mm]	zone of inhibition at 100 µg/mL [6] [mm]	MIC (A. niger [7]; Aspergillus niger) [mg/L]	MIC [8] [mg/L]	MIC [9] [mg/L]	MIC [10] [mg/L]	MIC [11, 14] [mg/L]	IC50 Superoxide [12] [mg/L]	Kd [13] [µM]	n (number of binding sites) [13]	K sv (Stern-Volmer quenching constant) [13] [L/mol]	K q (quenching rate constant) [13] [M⁻¹ s⁻¹]	shift of BSA fluorescence emission maximum wavelength [13]	melting point [°C]	MIC (A. niger [7]; A. niger, dilution method, average of three replicates) [mg/L]	MIC ([11]; S. aureus, dilution method, average of three replicates) [mg/L]
CC(=O)N(C(=O)c1cc(F)ccc1F)c1ccc(N=Cc2cc3ccccc3o2)cc1 [Compound 5a, N-acetyl-N-(4-((benzofuran-2-ylmethylene)amino)phenyl)-2,5-difluorobenzamide]	11	10.4	16	12	14	11	15 (≈ 35.9 µM)	15 (≈ 35.9 µM)	25 (≈ 59.8 µM)	25 (≈ 59.8 µM)	12 (≈ 28.7 µM)	91.3 ± 0.26 (≈ 218 µM)	1.9	1.180	99600	9.96e+12	slight blue shift	197		
COc1ccc(C(=O)N(C(C)=O)c2ccc(N=Cc3cc4ccccc4o3)cc2)cc1 [Compound 5i, N-acetyl-N-(4-(benzofuran-2-ylmethyleneamino)phenyl)-4-methoxybenzamide]	10	14	10	11	13	14	35 (≈ 84.9 µM)	30 (≈ 72.7 µM)	30 (≈ 72.7 µM)	35 (≈ 84.9 µM)	40 (≈ 97 µM)	14.3 ± 0.23 (≈ 34.7 µM)	1.57	1.208	74000	7.4e+12	slight blue shift	205		
CC(=O)N(C(=O)c1ccc(O)cc1)c1ccc(N=Cc2cc3ccccc3o2)cc1 [Compound 5j, N-acetyl-N-(4-((benzofuran-2-ylmethylene)amino)phenyl)-4-hydroxybenzamide]	9	15	9	11	13	12	40 (≈ 100 µM)	40 (≈ 100 µM)	50 (≈ 125 µM)	50 (≈ 125 µM)	35 (≈ 87.8 µM)	11.6 ± 0.04 (≈ 29.1 µM)	91.7	0.961	23900	2.39e+12	red shift	213		
CC(=O)N(C(=O)c1ccccc1)c1ccc(N=Cc2cc3ccccc3o2)cc1 [Compound 5c, N-acetyl-N -(4-((benzofuran-2-ylmethylene)amino)phenyl)benzamide]	9	15	10	15	12	11	40 (≈ 105 µM)	40 (≈ 105 µM)	50 (≈ 131 µM)	50 (≈ 131 µM)	35 (≈ 91.5 µM)	60.9 ± 0.28 (≈ 159 µM)	38.6	0.855	19300	1.93e+12	red shift	192		
CC(=O)N(C(=O)c1cc(F)cc(F)c1)c1ccc(N=Cc2cc3ccccc3o2)cc1 [Compound 5h, N-acetyl-N-(4-((benzofuran-2-ylmethylene)amino)phenyl)-3,5-difluorobenzamide]	11.4	10.9	12	11	17	14	10 (≈ 23.9 µM)	15 (≈ 35.9 µM)	25 (≈ 59.8 µM)	25 (≈ 59.8 µM)	12.4 (≈ 29.6 µM)	96.1 ± 0.31 (≈ 230 µM)	12.7	1.136	21300	2.13e+12	red shift	187		
CC(=O)N(C(=O)c1cc(F)c(F)c(F)c1)c1ccc(N=Cc2cc3ccccc3o2)cc1 [Compound 5g, N-acetyl-N-(4-(benzofuran-2-ylmethyleneamino)phenyl)-3,4,5-trifluorobenzamide]	13.2	14	13.5	12.7	14	13.6	10 (≈ 22.9 µM)	15 (≈ 34.4 µM)	12 (≈ 27.5 µM)	10 (≈ 22.9 µM)	9.8 (≈ 22.5 µM)	123 ± 0.44 (≈ 282 µM)	6.37	1.281	79800	7.98e+12	slight blue shift	190	10 (≈ 22.9 µM)	9.8 (≈ 22.5 µM)
